Data as given in the NIST ThermoML archive (doi:10.1016/j.jct.2006.07.004).
Numbers after ± are expanded uncertainties.

Key:
[1] = Liquid; for viscosity / mass density: 101 kPa; for viscosity: Capillary tube (Ostwald / Ubbelohde) method; for mass density: Vibrating tube method
[2] = xn = mol fraction of the nth substance listed; conditions: 101 kPa, Liquid, x2 = 0; for viscosity: Capillary tube (Ostwald / Ubbelohde) method; for mass density: Vibrating tube method

Row | SMILES | viscosity ([1]; 283.15 K) [mPa·s] | mass density ([1]; 283.15 K) [kg/m3] | viscosity ([1]; 293.15 K) [mPa·s] | mass density ([1]; 293.15 K) [kg/m3] | viscosity ([1]; 303.15 K) [mPa·s] | mass density ([1]; 303.15 K) [kg/m3] | vapor or sublimation pressure ([1]; 303.15 K) [kPa] | viscosity ([1]; 313.15 K) [mPa·s] | mass density ([1]; 313.15 K) [kg/m3] | viscosity ([2]; 283.15 K) [mPa·s] | mass density ([2]; 283.15 K) [kg/m3] | viscosity ([2]; 293.15 K) [mPa·s] | mass density ([2]; 293.15 K) [kg/m3] | viscosity ([2]; 303.15 K) [mPa·s] | mass density ([2]; 303.15 K) [kg/m3] | viscosity ([2]; 313.15 K) [mPa·s] | mass density ([2]; 313.15 K) [kg/m3]
1 | CC(=O)CC(C)C [4-methylpentan-2-one] | 0.655 ± 0.006 | 809.8 ± 0.3 | 0.576 ± 0.005 | 800.7 ± 0.3 | 0.511 ± 0.005 | 791.6 ± 0.3 | 3.89 ± 0.11 | 0.46 ± 0.004 | 782.2 ± 0.3 | – | – | – | – | – | – | – | –
2 | CC(=O)CC(C)C [4-methylpentan-2-one] + ClC(Cl)Cl | – | – | – | – | – | – | – | – | – | 0.655 ± 0.006 | 809.8 ± 0.3 | 0.576 ± 0.005 | 800.7 ± 0.3 | 0.511 ± 0.005 | 791.6 ± 0.3 | 0.46 ± 0.004 | 782.2 ± 0.3
3 | ClC(Cl)Cl [trichloromethane] | 0.629 ± 0.005 | 1507.3 ± 0.7 | 0.573 ± 0.005 | 1488.4 ± 0.7 | 0.516 ± 0.005 | 1469.4 ± 0.6 | 32.19 ± 0.33 | 0.468 ± 0.004 | 1450 ± 0.6 | – | – | – | – | – | – | – | –
